ChEMBL document CHEMBL5543151, “Rational Design of a Novel Class of Human ClpP Agonists through a Ring-Opening Strategy with Enhanced Antileukemia Activity” (J Med Chem, 2024)

Experiments:
[1] = target: T1, ATP-dependent Clp protease proteolytic subunit, mitochondrial (Homo sapiens, UniProt Q16740); assay: Agonist activity at human Casein lysing protease P (HsClpP) assessed as increase in peptidase activity using fluorescent peptide AC-WLA-AMC as substrate measured after 2 hrs by […]
MV4-11 [2] = assay: Anti-leukemia activity against human MV4-11 cells assessed as decrease in cell proliferation incubated for 72 hrs by CCK-8 assay; format: functional, cell-based; conditions: MV4-11, 72 h
[3] = target: T1, ATP-dependent Clp protease proteolytic subunit, mitochondrial; conditions: filed as agonist, dose 10.0 µM, time 2.0 hrs
MV4-11 [4] = assay: Potency index, ratio of ONC201 IC50 to test compound IC50 for anti-leukemia activity against human MV4-11 cells assessed as decrease in cell proliferation incubated for 72 hrs by CCK-8 assay; format: functional
[5] = Cmax in Sprague-Dawley rat at 5 mg/kg, iv measured upto 12 hrs by LC-MS analysis; format: ADME, organism-based; conditions: in vivo
[6] = AUC(0 to 12hrs) in Sprague-Dawley rat at 5 mg/kg, iv measured upto 12 hrs by LC-MS analysis; format: ADME, organism-based; conditions: in vivo
[7] = Half life in Sprague-Dawley rat at 5 mg/kg, iv measured upto 12 hrs by LC-MS analysis; format: ADME, organism-based; conditions: in vivo
[8] = Clearance in Sprague-Dawley rat at 5 mg/kg, iv measured upto 12 hrs by LC-MS analysis; format: ADME, organism-based; conditions: in vivo
[9] = MRT (0 to 12hrs) in Sprague-Dawley rat at 5 mg/kg, iv measured upto 12 hrs by LC-MS analysis; format: ADME, organism-based; conditions: in vivo
[10] = Bioavailability in Sprague-Dawley rat at 5 mg/kg, iv measured upto 12 hrs by LC-MS analysis; format: ADME, organism-based; conditions: in vivo
[11] = Cmax in Sprague-Dawley rat at 15 mg/kg, po measured upto 12 hrs by LC-MS analysis; format: ADME, organism-based; conditions: in vivo
[12] = Tmax in Sprague-Dawley rat at 15 mg/kg, po measured upto 12 hrs by LC-MS analysis; format: ADME, organism-based; conditions: in vivo
[13] = AUC(0 to 12hrs) in Sprague-Dawley rat at 15 mg/kg, po measured upto 12 hrs by LC-MS analysis; format: ADME, organism-based; conditions: in vivo
[14] = Half life in Sprague-Dawley rat at 15 mg/kg, po measured upto 12 hrs by LC-MS analysis; format: ADME, organism-based; conditions: in vivo
[15] = MRT (0 to 12hrs) in Sprague-Dawley rat at 15 mg/kg, po measured upto 12 hrs by LC-MS analysis; format: ADME, organism-based; conditions: in vivo

T1 sequence (Q16740 whole entry): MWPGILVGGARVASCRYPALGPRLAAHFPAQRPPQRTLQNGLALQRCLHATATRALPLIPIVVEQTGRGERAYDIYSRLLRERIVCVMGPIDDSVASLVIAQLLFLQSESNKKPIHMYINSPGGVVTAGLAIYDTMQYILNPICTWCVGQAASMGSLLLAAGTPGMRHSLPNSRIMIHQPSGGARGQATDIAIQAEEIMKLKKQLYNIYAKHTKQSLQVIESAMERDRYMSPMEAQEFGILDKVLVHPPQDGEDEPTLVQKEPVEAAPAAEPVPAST

| Compound | EC50 [1] [nM] | IC50 (MV4-11 [2]) [nM] | further results |
| --- | --- | --- | --- |
| O=c1nc(NCc2ccccc2Br)[nH]c2c1CN(Cc1ccccc1)CC2 | > 10000 | > 10000 |  |
| CCN1CCc2[nH]c(NCc3ccccc3)nc(=O)c2C1 | > 10000 | > 10000 |  |
| N#Cc1cccc(CN2CCc3[nH]c(NCc4cccc(F)c4)nc(=O)c3C2)c1 | > 10000 | > 10000 |  |
| O=c1nc(NCc2ccc(Br)cc2)[nH]c2c1CN(Cc1ccccc1)CC2 | 1950 | 930 |  |
| N#Cc1cccc(CN2CCc3[nH]c(NCc4ccc(Cl)c(Cl)c4)nc(=O)c3C2)c1 | 820 | 60 |  |
| O=c1nc(NCc2ccc(F)cc2)[nH]c2c1CN(Cc1ccccc1)CC2 | 1000 | 360 |  |
| O=c1nc(NCc2ccc3ccccc3c2)[nH]c2c1CN(Cc1ccccc1)CC2 | 2250 | 2400 |  |
| Cc1ccc(CNc2nc(=O)c3c([nH]2)CCN(Cc2ccccc2)C3)cc1 | 1110 | 1610 |  |
| O=c1nc(NCc2ccc(C(F)(F)F)cc2)[nH]c2c1CN(Cc1ccc(Cl)c(Cl)c1)CC2 | > 10000 | > 10000 |  |
| COc1cccc(CN2CCc3[nH]c(NCc4ccccc4)nc(=O)c3C2)c1 | > 10000 | 1680 |  |
| O=c1nc(NCc2ccc3c(c2)OCO3)[nH]c2c1CN(Cc1ccccc1)CC2 | 520 | 2900 |  |
| COc1ccccc1CNc1nc(=O)c2c([nH]1)CCN(Cc1ccccc1)C2 | > 10000 | > 10000 |  |
| O=c1nc(NCc2ccccc2)[nH]c2c1CN(Cc1cccc(Cl)c1)CC2 | 1090 | 930 |  |
| O=c1nc(NCc2ccccc2)[nH]c2c1CN(CCc1ccccc1)CC2 | > 10000 | > 10000 |  |
| CCNc1nc(=O)c2c([nH]1)CCN(Cc1ccccc1)C2 | > 10000 | > 10000 |  |
| O=c1nc(NCc2ccccc2)[nH]c2c1CN(CC1CC1)CC2 | > 10000 | > 10000 |  |

| Compound | EC50 [1] [nM] | IC50 (MV4-11 [2]) [nM] | further results |
| --- | --- | --- | --- |
| Cc1ccccc1CNc1nc(=O)c2c([nH]1)CCN(Cc1cccc(C#N)c1)C2 | > 10000 | > 10000 |  |
| N#Cc1cccc(CN2CCc3[nH]c(NCc4ccc(F)cc4)nc(=O)c3C2)c1 |  |  | ΔTm [3]: 18.3 °C |
| Cc1cccc(CNc2nc(=O)c3c([nH]2)CCN(Cc2ccccc2)C3)c1 | > 10000 | 1630 |  |
| Cc1ccccc1CN1CCn2c1nc(=O)c1c2CCN(Cc2ccccc2)C1 | 1920 | 350 |  |
| O=c1nc(NCc2ccccc2)[nH]c2c1CN(Cc1ccccc1F)CC2 | > 10000 | > 10000 |  |
| O=c1nc(NCc2cccnc2)[nH]c2c1CN(Cc1ccccc1)CC2 | > 10000 | > 10000 |  |
| Cc1ccccc1CNc1nc(=O)c2c([nH]1)CCN(Cc1cc(F)cc(F)c1)C2 | > 10000 | > 10000 |  |
| N#Cc1cccc(CN2CCc3[nH]c(NCc4ccc(F)c(F)c4)nc(=O)c3C2)c1 | 870 | 30 | Ratio IC50 (MV4-11 [4]): 20 |
| O=c1nc(NCc2ccccc2)[nH]c2c1CN(Cc1ccc(Cl)cc1)CC2 | 1210 | 970 |  |
| O=c1nc(NCc2ccccc2Cl)[nH]c2c1CN(Cc1ccccc1)CC2 | > 10000 | > 10000 |  |
| Cc1ccccc1CN1C(=O)C2=C(CCN(Cc3ccccc3)C2)N2CCN=C12.Cl |  |  | Cmax [5]: 970 ng/mL; AUC(0-t) at 12 h [6]: 1270 ng·h/mL; half-life [7]: 1.1 h; clearance [8]: 96.7 mL/min/kg; MRT last at 12 h [9]: 0.7 h; bioavailability [10]: 14.8%; Cmax [11]: 448 ng/mL; Tmax [12]: 0.5 h; AUC(0-t) at 12 h [13]: 565 ng·h/mL; half-life [14]: 1.4 h; MRT last at 12 h [15]: 1.3 h |
| COc1cccc(CNc2nc(=O)c3c([nH]2)CCN(Cc2ccccc2)C3)c1 | > 10000 | > 10000 |  |
| O=c1nc(NCc2ccccc2)[nH]c2c1CN(Cc1cc(F)cc(F)c1)CC2 | 950 | 900 |  |
| O=c1nc(NCc2ccc(F)c(F)c2)[nH]c2c1CN(Cc1cc(F)cc(F)c1)CC2 | 510 | 30 | Ratio IC50 (MV4-11 [4]): 20 |
| Cc1cccc(CN2CCc3[nH]c(NCc4ccccc4)nc(=O)c3C2)c1 | 2250 | 2400 |  |
| O=c1nc(NCc2ccccc2)[nH]c2c1CN(Cc1ccccc1)CC2 | 1340 | > 10000 |  |

More lines, main results first:

| EC50 [1] [nM] | IC50 (MV4-11 [2]) [nM] | Compound | further results |
| --- | --- | --- | --- |
| 2100 | 1200 | O=c1nc(NCc2ccccc2)[nH]c2c1CN(Cc1ccc(F)c(F)c1)CC2 |  |
| > 10000 | > 10000 | CS(=O)(=O)c1ccc(CN2CCc3[nH]c(NCc4ccccc4)nc(=O)c3C2)cc1 |  |
| 2020 | 830 | COc1ccc(CNc2nc(=O)c3c([nH]2)CCN(Cc2ccccc2)C3)cc1 |  |
| 610 | 450 | O=c1nc(NCc2ccc(Cl)c(Cl)c2)[nH]c2c1CN(Cc1ccccc1)CC2 |  |
| > 10000 | > 10000 | Cc1ccccc1CN1CCc2[nH]c(NCc3ccccc3)nc(=O)c2C1 |  |
| 1220 | 1510 | Cc1ccccc1CNc1nc(=O)c2c([nH]1)CCN(Cc1ccccc1)C2 |  |
| > 10000 | > 10000 | O=c1nc(NCc2cccc(F)c2)[nH]c2c1CN(Cc1ccccc1)CC2 |  |
| 610 | 450 | N#Cc1cccc(CN2CCc3[nH]c(NCc4ccccc4)nc(=O)c3C2)c1 |  |
| > 10000 | > 10000 | O=c1nc(NCc2cccc(Br)c2)[nH]c2c1CN(Cc1ccccc1)CC2 |  |
| 1000 | 360 | O=c1nc(NCc2ccccc2)[nH]c2c1CN(Cc1ccc(Cl)c(Cl)c1)CC2 |  |
| 2100 | 1200 | O=c1nc(NCc2ccc(C(F)(F)F)cc2)[nH]c2c1CN(Cc1ccccc1)CC2 |  |
| > 10000 | > 10000 | O=c1nc(NCc2ccccc2)[nH]c2c1CN(Cc1ccc(F)cc1)CC2 |  |
| > 10000 | > 10000 | O=c1nc(NCC2CCCCC2)[nH]c2c1CN(Cc1ccccc1)CC2 |  |
| > 10000 | > 10000 | N#Cc1ccccc1CN1CCc2[nH]c(NCc3ccccc3)nc(=O)c2C1 |  |
| > 10000 | > 10000 | Cc1ccc(CN2CCc3[nH]c(NCc4ccccc4)nc(=O)c3C2)cc1 |  |
| > 10000 | 1880 | O=c1nc(NCc2cccc(Cl)c2)[nH]c2c1CN(Cc1ccccc1)CC2 |  |
| 1350 | 930 | O=c1nc(NCc2ccccc2F)[nH]c2c1CN(Cc1ccccc1)CC2 |  |
| 1950 | 1690 | O=c1nc(NCc2ccc(Cl)cc2)[nH]c2c1CN(Cc1ccccc1)CC2 |  |
| > 10000 | > 10000 | O=c1nc(NCc2ccc3c(c2)OCO3)[nH]c2c1CN(Cc1ccc(Cl)c(Cl)c1)CC2 |  |
| > 10000 | > 10000 | O=c1nc(NCc2ccc(C(F)(F)F)cc2)[nH]c2c1CN(Cc1cc(F)cc(F)c1)CC2 |  |
| 1410 | 480 | O=c1nc(NCc2ccc(F)c(F)c2)[nH]c2c1CN(Cc1ccccc1)CC2 |  |
| > 10000 | > 10000 | O=c1nc(NCc2ccc3c(c2)OCO3)[nH]c2c1CN(Cc1cc(F)cc(F)c1)CC2 |  |
| > 10000 | > 10000 | N#Cc1cccc(CN2CCc3[nH]c(NCc4ccc(C(F)(F)F)cc4)nc(=O)c3C2)c1 |  |
| > 10000 | > 10000 | O=c1nc(NCC2CC2)[nH]c2c1CN(Cc1ccccc1)CC2 |  |
| > 10000 | > 10000 | O=c1nc(NCc2cnccn2)[nH]c2c1CN(Cc1ccccc1)CC2 |  |
| > 10000 | > 10000 | O=c1[nH]c(NCCc2ccccc2)nc2c1CN(Cc1ccccc1)CC2 |  |
| 2020 | 830 | O=c1nc(NCc2ccccc2)[nH]c2c1CN(Cc1cccc(F)c1)CC2 |  |
| 1350 | 1030 | O=c1nc(NCc2ccccc2)[nH]c2c1CN(Cc1ccccc1Cl)CC2 |  |
